Test results: patent publication US20180216124A1, “METHOD OF PRODUCING PLASTID TRANSFORMANTS” (HONDA MOTOR CO., LTD., priority 2015, published 2018)

Experiments:
switchgrass calluses [1] = experiment: Sensitivity of switchgrass calluses to drugs: callus growth on PVC medium; assay type: cell-based
Method: (§1) Skins of mature seeds of switchgrass variety “Alamo” were removed by 60% (v/v) sulfate treatment, and a fungicide for seeds was used for sterilization. […] The seeds were cultured for a few months in the dark at 28° C. Then, grown calluses were classified as independent strains for each derived seed. Strains in which a compact callus expected to have a regeneration ability was grown were selected and cultured.
(§2) In order to develop a new screening method that is appropriate for plastid transformation, the calluses of the regeneration strains prepared in the above <1> were used to examine sensitivity of wild type plant cells to various drugs.

switchgrass calluses [2] = experiment: Sensitivity of switchgrass calluses to drugs: plant (shoot) regeneration on PVS medium; assay type: cell-based; details: switchgrass callus on PVS medium
Method: as §1, §2

[3] = tested on: wild type of rice variety Nipponbare; details: MS-NK medium containing sodium nitrite 400 mg/L
Method: PSR1 genes were introduced into plastids of rice variety Nipponbare and rice variety Koshihikari and transformants were screened using sodium nitrite. Specifically, it was performed as follows. An MS-NK medium (Nishimura et al., Nature Protocols, 2006, Vol. 1, p. 2796-2802) used as a regeneration medium contained nitrate nitrogen, originally.

[4] = tested on: wild type switchgrass calluses; details: 28° C.
Method: In the sodium nitrite screening, in order to determine a screening concentration more effectively, wild type switchgrasses were cultured under sodium nitrite conditions of different concentrations, and the sensitivity of wild type cells to sodium nitrite was examined.
Specifically, a mass of 14 switchgrass calluses remained for each plate on PVC media and PVS media containing sodium nitrite having a concentration of 0, 0.25, 0.5, 0.6, 0.7, 0.8, 0.9, or 1.0 g/L, and three plates of each of which were prepared for each concentration condition. The PVC media were cultured in the dark at 28° C. and the PVS media were cultured under light at 28° C. for 4 weeks. After culture, the number of grown calluses was measured in the PVC media, and the number of calluses from which plants were regenerated was measured in the PVS media. The growth rate and the regeneration rate were calculated.

[5] = PVC media, dark, 4 weeks (FIG. 2A)
[6] = PVS media, light, 4 weeks (FIG. 2B)

Molecule	Callus growth: supression concentration (switchgrass calluses [1])	Shoot regeneration: supression concentration (switchgrass calluses [2])	also measured
CCc1cc(C)cc(CC)c1-c1c(OC(=O)C(C)(C)C)n2n(c1=O)CCOCC2 [Pinoxaden]	(>1.0 μM)	–	–
O=C(N[C@H](CO)[C@H](O)c1ccc([N+](=O)[O-])cc1)C(Cl)Cl [Cloramphenicol]	(>30 mg/L)	(>15 mg/L)	–
O=NO [Sodium nitrite]	(>800 mg/L)	(>800 mg/L)	Regeneration ability of wild type rice [3]: had a regeneration ability; Concentration at which callus growth was completely suppressed [4, 5]: ≥ 0.9 g/L; Concentration at which callus growth was sharply reduced [4, 5]: 0.7 g/L; Concentration at which plant regeneration was completely suppressed [4, 6]: 1.0 g/L; Concentration at which plant regeneration was sharply reduced [4, 6]: 0.8 g/L
CCCC(=NOCC)C1=C(O)CC(C2CCCSC2)CC1=O (centres unmarked) [Cycloxydim]	(>1.5 μM)	(>0.1 μM)	–
[H]/N=C(/N)N[C@H]1[C@H](O)[C@@H](O)[C@H](O[C@@H]2O[C@@H](C)[C@](O)(C=O)[C@H]2O[C@@H]2O[C@@H](CO)[C@H](O)[C@@H](O)[C@@H]2NC)[C@@H](N/C(N)=N\[H])[C@@H]1O [Streptomycin]	–	(>400 mg/L)	–
Bleocin	(>25 mg/L)	(>10 mg/L)	–
C[n+]1ccc(-c2cc[n+](C)cc2)cc1 [Methylviologen]	(>1.0 μM)	(>1.0 μM)	–
CN(C)[C@@H]1C(O)=C(C(N)=O)C(=O)[C@@]2(O)C(O)=C3C(=O)c4c(O)cccc4[C@@](C)(O)[C@H]3C[C@@H]12 [Tetracycline]	(>40 mg/L)	(>60 mg/L)	–
O=C(O)CNCP(=O)(O)O [Glyphosate]	(>0.1 mM)	(>0.1 mM)	–
CCCCOC(=O)C(C)Oc1ccc(Oc2ccc(C(F)(F)F)cn2)cc1 (centres unmarked) [Fluazifop-butyl]	(>1.0 μM)	(>0.1 μM)	–
CC(Oc1ccc(Oc2ncc(C(F)(F)F)cc2Cl)cc1)C(=O)O (centres unmarked) [Haloxyfop]	(>1.0 μM)	–	–
C[C@@H](Oc1ccc(Oc2ncc(Cl)cc2F)cc1)C(=O)O [Clodinafop]	(>1.0 μM)	–	–
NC[C@H]1O[C@H](O[C@H]2[C@H](O)[C@@H](O[C@H]3O[C@H](CO)[C@@H](O)[C@H](N)[C@H]3O)[C@H](N)C[C@@H]2N)[C@H](O)[C@@H](O)[C@@H]1O [Kanamycin]	(>200 mg/L)	(>100 mg/L)	–
CN[C@@H]1[C@@H](O)[C@@H](O[C@@H]2[C@@H](O)[C@H](O[C@H]3O[C@H]([C@@H](C)O)[C@@H](O)[C@H](O)[C@H]3N)[C@@H](N)C[C@H]2N)OC[C@]1(C)O [G418]	(>25 mg/L)	(>25 mg/L)	–
